{"source": "ChEMBL document CHEMBL1201862", "about": "“PubChem BioAssay data set” (2004)", "key": {"Fatty acid synthase [1]": {"target": "T1, Fatty acid synthase (Homo sapiens, UniProt P49327)", "T1 sequence (P49327 whole entry, the tested form may be a part)": "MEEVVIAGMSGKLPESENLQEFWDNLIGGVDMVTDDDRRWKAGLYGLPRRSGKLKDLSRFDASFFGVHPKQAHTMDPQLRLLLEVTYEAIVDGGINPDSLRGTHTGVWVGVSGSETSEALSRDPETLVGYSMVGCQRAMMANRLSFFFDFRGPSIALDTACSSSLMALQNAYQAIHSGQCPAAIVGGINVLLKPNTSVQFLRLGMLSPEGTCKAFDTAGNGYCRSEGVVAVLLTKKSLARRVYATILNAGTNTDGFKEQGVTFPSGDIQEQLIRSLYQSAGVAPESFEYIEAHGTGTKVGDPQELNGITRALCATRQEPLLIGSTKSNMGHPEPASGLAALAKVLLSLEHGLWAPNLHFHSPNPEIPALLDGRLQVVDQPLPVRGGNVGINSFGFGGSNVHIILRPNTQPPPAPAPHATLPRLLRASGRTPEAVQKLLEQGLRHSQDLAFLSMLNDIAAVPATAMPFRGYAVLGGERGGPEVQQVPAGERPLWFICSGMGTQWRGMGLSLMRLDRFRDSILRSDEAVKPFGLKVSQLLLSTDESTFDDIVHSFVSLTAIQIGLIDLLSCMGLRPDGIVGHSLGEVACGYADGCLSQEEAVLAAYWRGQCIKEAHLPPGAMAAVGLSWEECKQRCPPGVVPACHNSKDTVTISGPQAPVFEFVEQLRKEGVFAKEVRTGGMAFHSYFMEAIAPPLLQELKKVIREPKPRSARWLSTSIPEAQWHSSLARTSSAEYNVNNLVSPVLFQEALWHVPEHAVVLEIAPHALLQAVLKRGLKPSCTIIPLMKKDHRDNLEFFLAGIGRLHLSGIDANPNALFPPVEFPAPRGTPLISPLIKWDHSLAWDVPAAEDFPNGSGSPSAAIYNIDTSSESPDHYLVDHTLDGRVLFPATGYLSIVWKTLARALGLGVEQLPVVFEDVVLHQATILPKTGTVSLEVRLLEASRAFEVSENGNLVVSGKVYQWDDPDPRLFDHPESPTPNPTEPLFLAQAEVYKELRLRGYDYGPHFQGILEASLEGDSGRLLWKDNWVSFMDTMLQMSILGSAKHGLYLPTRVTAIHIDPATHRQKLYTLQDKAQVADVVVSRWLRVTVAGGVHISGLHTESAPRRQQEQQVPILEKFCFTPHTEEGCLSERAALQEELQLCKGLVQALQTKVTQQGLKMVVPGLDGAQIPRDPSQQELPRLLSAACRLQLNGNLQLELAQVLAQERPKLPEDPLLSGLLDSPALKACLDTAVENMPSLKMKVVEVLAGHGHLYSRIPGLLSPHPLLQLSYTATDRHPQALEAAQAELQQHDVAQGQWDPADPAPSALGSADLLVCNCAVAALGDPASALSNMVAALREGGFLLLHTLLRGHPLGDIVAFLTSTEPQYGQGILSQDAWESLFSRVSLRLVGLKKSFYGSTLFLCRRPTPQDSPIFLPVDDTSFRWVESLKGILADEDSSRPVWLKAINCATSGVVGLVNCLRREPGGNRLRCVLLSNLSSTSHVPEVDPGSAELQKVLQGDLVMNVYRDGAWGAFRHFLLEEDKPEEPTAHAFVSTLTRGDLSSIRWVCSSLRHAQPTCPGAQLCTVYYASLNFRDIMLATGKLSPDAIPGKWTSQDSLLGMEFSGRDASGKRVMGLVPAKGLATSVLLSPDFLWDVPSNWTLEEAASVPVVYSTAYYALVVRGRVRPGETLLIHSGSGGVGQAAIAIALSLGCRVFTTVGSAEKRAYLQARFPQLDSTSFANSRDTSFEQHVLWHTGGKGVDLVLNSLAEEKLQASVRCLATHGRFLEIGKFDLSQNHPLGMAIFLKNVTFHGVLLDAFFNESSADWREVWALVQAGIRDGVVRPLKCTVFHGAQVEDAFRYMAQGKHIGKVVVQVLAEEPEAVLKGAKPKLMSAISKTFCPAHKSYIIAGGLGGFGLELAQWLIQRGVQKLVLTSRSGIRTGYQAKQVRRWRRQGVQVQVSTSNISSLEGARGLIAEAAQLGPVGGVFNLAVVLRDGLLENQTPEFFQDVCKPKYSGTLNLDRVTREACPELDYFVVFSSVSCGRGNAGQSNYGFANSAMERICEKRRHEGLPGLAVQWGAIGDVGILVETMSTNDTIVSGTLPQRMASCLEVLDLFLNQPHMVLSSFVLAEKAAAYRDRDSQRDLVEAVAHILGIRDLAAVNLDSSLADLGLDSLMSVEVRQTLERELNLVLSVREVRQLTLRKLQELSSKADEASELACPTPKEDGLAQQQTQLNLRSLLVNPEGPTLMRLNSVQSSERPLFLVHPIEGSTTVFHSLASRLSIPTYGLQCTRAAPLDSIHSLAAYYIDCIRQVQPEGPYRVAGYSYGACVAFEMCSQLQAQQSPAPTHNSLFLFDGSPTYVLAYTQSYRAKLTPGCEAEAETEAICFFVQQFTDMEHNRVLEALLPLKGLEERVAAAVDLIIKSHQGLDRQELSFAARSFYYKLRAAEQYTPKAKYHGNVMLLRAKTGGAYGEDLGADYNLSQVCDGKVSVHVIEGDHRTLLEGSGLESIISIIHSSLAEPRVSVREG", "assay": "FAS thioesterase domain inhibitors, dose response, biochemical, kinetic fluorescence intensity (AID 624326);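 note: rate of fluorescence rise from hydrolysis of a fluorogenic O-methyl fluorescein ester substrate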", "format": "functional"}, "Fatty acid synthase [2]": {"target": "T1, Fatty acid synthase", "assay": "FAS thioesterase domain inhibitors, dose response, biochemical, endpoint fluorescence intensity, uHTS hits (AID 624327);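 note: fluorescence from hydrolysis of an O-methyl fluorescein acyl ester substrate by the enzyme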", "format": "functional"}, "[3]": {"target": "T2, Endoribonuclease toxin MazF (Escherichia coli K-12, UniProt P0AE70)", "T2 sequence (P0AE70 whole entry)": "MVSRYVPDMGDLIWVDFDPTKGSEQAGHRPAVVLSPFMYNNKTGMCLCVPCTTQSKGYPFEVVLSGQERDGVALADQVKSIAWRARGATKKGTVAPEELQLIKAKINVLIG", "assay": "MazF toxin RNase activators, dose response, biochemical, fluorescence, single-stranded RNA substrate, uHTS hits (AID 588481)", "format": "functional"}, "[4]": {"target": "T2, Endoribonuclease toxin MazF", "assay": "fluorescent RNA oligo signal without MazF, dose response, counter-screen for MazEF activator project, biochemical, fluorescence, single-stranded RNase substrate (AID 588502)", "format": "functional"}, "[5]": {"assay": "intracellular Trypanosoma cruzi inhibitors in host cells – cell-based, plate reader, cherry-pick samples, set 3, dose response (AID 651818);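 note: compounds incubated with infected cells for about four days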", "format": "functional"}, "[6]": {"target": "Peroxisome proliferator-activated receptor gamma/Nuclear receptor coactivator 3 (Homo sapiens, UniProt P37231)", "assay": "TR-FRET dose response biochemical High Throughput Screening assay for agonists of the steroid receptor coactivator 3 (SRC-3) recruitment by the peroxisome proliferator-activated receptor gamma (PPAR gamma): non-selective agonists. [Related pubchem assays: 1301 (Confirmation screen.), 1048 (Primary screen.)]", "format": "functional"}, "[7]": {"target": "Peroxisome proliferator-activated receptor gamma/Nuclear receptor coactivator 2 (Homo sapiens, UniProt P37231)", "sequence (P37231 whole entry)": "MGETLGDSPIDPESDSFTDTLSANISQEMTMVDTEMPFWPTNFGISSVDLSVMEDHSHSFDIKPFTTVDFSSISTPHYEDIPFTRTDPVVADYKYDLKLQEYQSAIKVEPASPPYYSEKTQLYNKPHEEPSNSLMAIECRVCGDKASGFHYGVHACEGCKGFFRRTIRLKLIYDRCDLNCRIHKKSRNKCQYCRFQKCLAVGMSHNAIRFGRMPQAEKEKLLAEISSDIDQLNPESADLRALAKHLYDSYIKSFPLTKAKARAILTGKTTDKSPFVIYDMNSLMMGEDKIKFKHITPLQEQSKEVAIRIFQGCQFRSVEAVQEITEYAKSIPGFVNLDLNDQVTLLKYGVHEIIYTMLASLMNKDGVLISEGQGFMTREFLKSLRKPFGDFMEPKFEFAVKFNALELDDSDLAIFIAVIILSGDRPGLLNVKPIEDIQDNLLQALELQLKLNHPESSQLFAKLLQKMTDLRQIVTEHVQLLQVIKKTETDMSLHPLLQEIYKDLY", "sequence (Q15596 whole entry, further chain)": "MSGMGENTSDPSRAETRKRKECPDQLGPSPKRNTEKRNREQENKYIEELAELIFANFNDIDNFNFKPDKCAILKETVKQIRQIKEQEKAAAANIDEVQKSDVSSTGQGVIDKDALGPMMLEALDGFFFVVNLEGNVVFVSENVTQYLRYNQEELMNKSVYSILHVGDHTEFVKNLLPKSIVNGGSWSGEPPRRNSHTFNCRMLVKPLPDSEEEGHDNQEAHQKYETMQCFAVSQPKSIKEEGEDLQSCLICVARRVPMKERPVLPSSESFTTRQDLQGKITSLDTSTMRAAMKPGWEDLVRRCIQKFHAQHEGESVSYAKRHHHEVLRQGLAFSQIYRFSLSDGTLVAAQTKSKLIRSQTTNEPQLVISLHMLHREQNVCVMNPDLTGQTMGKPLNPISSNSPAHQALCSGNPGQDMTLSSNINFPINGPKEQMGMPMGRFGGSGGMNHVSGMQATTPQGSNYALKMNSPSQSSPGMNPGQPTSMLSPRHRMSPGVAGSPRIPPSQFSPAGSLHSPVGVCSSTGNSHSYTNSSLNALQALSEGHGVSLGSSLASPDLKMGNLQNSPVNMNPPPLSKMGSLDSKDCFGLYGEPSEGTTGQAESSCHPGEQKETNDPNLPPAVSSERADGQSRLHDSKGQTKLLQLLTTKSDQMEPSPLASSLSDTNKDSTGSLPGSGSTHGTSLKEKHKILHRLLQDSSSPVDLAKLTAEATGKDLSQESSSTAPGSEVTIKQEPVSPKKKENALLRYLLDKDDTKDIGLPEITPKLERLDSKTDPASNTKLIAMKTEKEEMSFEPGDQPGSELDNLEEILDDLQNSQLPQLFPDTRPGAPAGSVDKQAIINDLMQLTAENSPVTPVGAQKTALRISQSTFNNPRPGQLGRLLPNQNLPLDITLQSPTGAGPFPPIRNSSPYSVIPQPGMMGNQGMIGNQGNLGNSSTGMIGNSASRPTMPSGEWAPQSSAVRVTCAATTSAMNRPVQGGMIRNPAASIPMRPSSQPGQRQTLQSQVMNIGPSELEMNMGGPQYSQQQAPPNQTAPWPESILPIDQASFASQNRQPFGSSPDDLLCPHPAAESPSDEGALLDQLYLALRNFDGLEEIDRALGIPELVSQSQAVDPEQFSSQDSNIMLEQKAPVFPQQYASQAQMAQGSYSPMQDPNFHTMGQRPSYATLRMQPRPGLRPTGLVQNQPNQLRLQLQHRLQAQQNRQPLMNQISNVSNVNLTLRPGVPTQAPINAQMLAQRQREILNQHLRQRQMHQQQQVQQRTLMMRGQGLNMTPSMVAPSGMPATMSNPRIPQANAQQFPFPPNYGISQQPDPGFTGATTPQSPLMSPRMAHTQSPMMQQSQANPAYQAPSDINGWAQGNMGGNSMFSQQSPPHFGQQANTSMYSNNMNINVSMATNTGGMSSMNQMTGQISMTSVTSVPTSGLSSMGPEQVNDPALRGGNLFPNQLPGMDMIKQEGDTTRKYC", "assay": "(§1) TR-FRET dose response biochemical High Throughput Screening assay for agonists of the steroid receptor coactivator 2 (SRC-2) recruitment by the peroxisome proliferator-activated receptor gamma (PPAR gamma): non-selective agonists. [Related pubchem assays: 1297, 1032 ]", "format": "functional"}, "[8]": {"target": "Peroxisome proliferator-activated receptor gamma/Nuclear receptor coactivator 1 (Homo sapiens, UniProt P37231)", "assay": "as §1, with “1 (SRC-1)” for “2 (SRC-2)”, “assays (depositor defined):AID1300, AID1808, AID504735, AID631]” for “assays: 1297, 1032 ]”", "format": "protein assay"}, "H9c2": {"test_system": "H9c2", "assay": "cells", "format": "functional, cell-based", "details": "Rattus norvegicus, H9c2, Myocardium"}, "[9]": {"assay": "cytotoxicity in HEK-293T cells, dose response, cytotoxicity control for BCR NF-kB inhibitor project, luminescence, B-cell screen hits (AID 489021)", "format": "functional, cell-based"}, "[10]": {"assay": "Shn3 3'UTR reporter inhibitors, dose response, cell-based, Clone20 osteoblasts, firefly luciferase, cherry-picked (AID 624132)", "format": "functional"}, "[11]": {"assay": "control 3'UTR Renilla luciferase suppression, dose response, counter-screen for Shn3 inhibitor project, cell-based, Clone20-Shn3RL, cherry-picked (AID 624133)", "format": "functional"}, "INS1": {"test_system": "INS1", "assay": "beta cell apoptosis inhibitors, cytokine rescue, dose response, luminescence, retest (AID 449756)", "format": "functional, cell-based", "details": "Rattus norvegicus"}, "[12]": {"assay": "HepG2 cell cytotoxicity, dose response, cytotoxicity control for Shn3 inhibitor project, CellTiter-Glo, cherry-picked (AID 624134)", "format": "functional, cell-based"}, "[13]": {"assay": "THP-1 cell cytotoxicity, dose response, cytotoxicity control for non-replicating M. tuberculosis project (AID 489025)", "format": "functional"}, "[14]": {"assay": "LGR2 antagonists, dose response, cell-based, HEK293, CRE-luciferase reporter, cherry pick, set 2 (AID 743343)", "format": "functional"}, "[15]": {"assay": "MC4R antagonists, dose response, counter-screen for LGR2 antagonist project, cell-based, plate reader, cherry pick (AID 743444)", "format": "functional"}, "[16]": {"assay": "Luminescence Cell-Based Dose Response HTS to Identify Inhibitors of 5'UTR Stem-Loop Driven Prion Protein mRNA Translation in H4 Neuroglioblastoma Cells. [Related pubchem assays: 1827 (Project Summary), 1813 (Primary HTS)]", "format": "functional"}, "[17]": {"assay": "inhibitors of SNCA 5'UTR-driven reporter translation, confirmation, H4 neuroglioma cells, luminescence (AID 1988)", "format": "functional, cell-based"}, "[18]": {"assay": "inhibitors of firefly luciferase expression or activity, dose response, H4 neuroglioma cells, luminescence (AID 1990)", "format": "functional, cell-based"}, "[19]": {"assay": "THP-1 cell cytotoxicity, dose response, cytotoxicity control for Vif-APOBEC3G degradation inhibitor project, THP-1 cells (AID 1117359)", "format": "functional", "details": "Human immunodeficiency virus 1, THP-1"}, "Protein Tat": {"target": "T3, Protein Tat (Human immunodeficiency virus type 1 group M subtype B (isolate HXB2)(HIV-1), UniProt P04608)", "T3 sequence (P04608 whole entry)": "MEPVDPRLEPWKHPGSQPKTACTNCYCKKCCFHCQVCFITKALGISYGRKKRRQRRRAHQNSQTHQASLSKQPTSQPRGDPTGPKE", "format": "functional"}, "[20]": {"target": "Eukaryotic translation initiation factor 4E (Mus musculus, UniProt P63073)", "sequence (P63073 whole entry)": "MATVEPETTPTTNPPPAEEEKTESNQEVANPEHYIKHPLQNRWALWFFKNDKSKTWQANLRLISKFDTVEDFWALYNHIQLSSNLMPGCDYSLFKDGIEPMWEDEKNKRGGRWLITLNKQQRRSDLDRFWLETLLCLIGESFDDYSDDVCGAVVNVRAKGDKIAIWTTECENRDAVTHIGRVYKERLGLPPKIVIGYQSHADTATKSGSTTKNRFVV", "assay": "eIF4E–eIF4G protein interaction inhibitors, dose response, biochemical, TR-FRET (AID 855)", "format": "functional"}}, "note": "The source made the active and inactive calls."}
{"smiles": "Cc1ccc(S(=O)(=O)N[N-][C+]2CCC(C(C)(C)C)CC2)cc1[N+](=O)[O-]", "values": [{"measurement": "IC50", "setting": "Fatty acid synthase [1]", "result": "80 µM (inactive)"}, {"measurement": "IC50", "setting": "Fatty acid synthase [2]", "result": "53 µM (inactive)"}]}
{"smiles": "COC(=O)c1sc2nc(SCc3cccc(F)c3)n(N)c(=O)c2c1C", "values": [{"measurement": "EC50", "setting": "[3]", "result": "> 99 µM (inactive)"}, {"measurement": "EC50", "setting": "[4]", "result": "> 99 µM (inactive)"}]}
{"smiles": "C[C@H]1CN([C@@H](C)CO)C(=O)Cc2cc(NC(=O)Nc3ccc4c(c3)OCO4)ccc2O[C@@H]1CN(C)Cc1ccc(C(F)(F)F)cc1", "values": [{"measurement": "AC50", "setting": "[5]", "result": "4.86 µM (active)"}]}
{"smiles": "Cc1noc(C)c1S(=O)(=O)Nc1ccc2c(c1)CC(=O)N([C@@H](C)CO)C[C@@H](C)[C@@H](CN(C)Cc1ccc(C(=O)Nc3ccccc3N)cc1)O2", "values": [{"measurement": "AC50", "setting": "[5]", "result": "2.56 µM (active)"}]}
{"smiles": "CC(C)CC(=O)NC(=S)Nc1cccc2nsnc12", "values": [{"measurement": "EC50", "setting": "[6]", "result": "7.93 µM (active)"}, {"measurement": "EC50", "setting": "[7]", "result": "2.92 µM (active)"}, {"measurement": "EC50", "setting": "[8]", "result": "1.81 µM (active)"}]}
{"smiles": "C=CCn1c(SCc2ccc(Br)cc2F)nc2cc(C(=O)O)ccc2c1=O", "values": [{"measurement": "IC50", "setting": "Fatty acid synthase [1]", "result": "10.9 µM (active)"}, {"measurement": "IC50", "setting": "Fatty acid synthase [2]", "result": "11.4 µM (active)"}]}
{"smiles": "Nc1nc(-c2c[nH]c3ccccc23)cs1", "values": [{"measurement": "EC50", "setting": "[6]", "result": "> 79.4 µM (not active)"}, {"measurement": "EC50", "setting": "[7]", "result": "24.2 µM (not active)"}, {"measurement": "IC50", "setting": "H9c2", "result": "> 79 µM (inactive)"}, {"measurement": "EC50", "setting": "[8]", "result": "> 26.5 µM (inactive)"}]}
{"smiles": "Cc1c(CCC(=O)O)c(=O)oc2cc3oc4c(c3cc12)CCCC4", "values": [{"measurement": "IC50", "setting": "[9]", "result": "> 80 µM (inactive)"}]}
{"smiles": "O=C(Nc1cccc(S(=O)(=O)Nc2ccc(Cl)cc2)c1)c1ccc(Cl)nc1", "values": [{"measurement": "AC50", "setting": "[10]", "result": "0.606 µM (active)"}, {"measurement": "IC50", "setting": "[9]", "result": "49.5 µM (inactive)"}, {"measurement": "AC50", "setting": "[11]", "result": "11.7 µM (active)"}, {"measurement": "AC50", "setting": "INS1", "result": "3.31 µM (active)"}, {"measurement": "AC50", "setting": "[12]", "result": "2.63 µM (active)"}]}
{"smiles": "N=c1oc2ccc(Cl)cc2cc1C(=O)NC1CCCCCC1", "values": [{"measurement": "CC50", "setting": "[13]", "result": "24 µM (active)"}]}
{"smiles": "C[C@@H]1CN([C@@H](C)CO)C(=O)Cc2cc(NS(=O)(=O)c3ccc(F)cc3)ccc2O[C@@H]1CN(C)S(=O)(=O)c1ccc(Cl)cc1", "values": [{"measurement": "AC50", "setting": "[5]", "result": "3.3 µM (active)"}]}
{"smiles": "CC(C)Sc1ncnc2c1oc1ccccc12", "values": [{"measurement": "EC50", "setting": "[6]", "result": "> 79.4 µM (not active)"}, {"measurement": "EC50", "setting": "[7]", "result": "26.2 µM (not active)"}, {"measurement": "EC50", "setting": "[8]", "result": "39.2 µM (inactive)"}]}
{"smiles": "O=C(NN1C(=O)/C(=C/c2nc3ccccc3[nH]2)SC1=S)c1ccccc1Cl", "values": [{"measurement": "EC50", "setting": "[6]", "result": "> 79.4 µM (not active)"}, {"measurement": "EC50", "setting": "[7]", "result": "44.5 µM (not active)"}, {"measurement": "EC50", "setting": "[8]", "result": "25.8 µM (inactive)"}]}
{"smiles": "Cc1nc2c(OCCC3CCCCC3)cccn2c1N(C)C(=O)CCC1CCCC1", "values": [{"measurement": "AC50", "setting": "[14]", "result": "9.83 µM (active)"}, {"measurement": "AC50", "setting": "[15]", "result": "7.16 µM (active)"}]}
{"smiles": "Cc1nc2ccc([N+](=O)[O-])cc2c(=O)n1Cc1ccc([N+](=O)[O-])cc1", "values": [{"measurement": "IC50", "setting": "Fatty acid synthase [1]", "result": "8.3 µM (active)"}, {"measurement": "IC50", "setting": "Fatty acid synthase [2]", "result": "9.22 µM (active)"}]}
{"smiles": "COc1cc(OC)cc(-c2cc3nc(C)c(CCC(=O)NCc4ccccc4)c(C)n3n2)c1", "values": [{"measurement": "EC50", "setting": "[16]", "result": "9.35 µM (active)"}, {"measurement": "IC50", "setting": "[9]", "result": "> 80 µM (inactive)"}, {"measurement": "EC50", "setting": "[17]", "result": "9.84 µM (active)"}, {"measurement": "EC50", "setting": "[18]", "result": "8.43 µM (active)"}]}
{"smiles": "COc1cc(CN(C(=O)c2ccco2)c2ccc(C)cc2)ccc1O", "values": [{"measurement": "CC50", "setting": "[19]", "result": "> 40 µM (active)"}, {"measurement": "IC50", "setting": "Protein Tat", "result": "9.05 µM (inconclusive)"}, {"measurement": "IC50", "setting": "[20]", "result": "> 64 µM (inactive)"}]}
{"smiles": "CC(C)(C)NCc1cc(Br)ccc1OCc1cccs1", "values": [{"measurement": "CC50", "setting": "[13]", "result": "> 40 µM (active)"}]}
{"smiles": "C[C@H]1CN([C@@H](C)CO)C(=O)Cc2cc(NC(=O)Nc3cccc4ccccc34)ccc2O[C@H]1CN(C)Cc1ccc(C(=O)Nc2ccccc2N)cc1", "values": [{"measurement": "AC50", "setting": "[5]", "result": "3.39 µM (active)"}]}
{"smiles": "CC(C)C[C@@]12C(=O)N(c3ccc(Br)cc3)C(=O)N1[C@H](c1ccc(Br)cc1)[C@@H]1C(=O)N(C(C)(C)C)C(=O)[C@@H]12", "values": [{"measurement": "IC50", "setting": "Fatty acid synthase [1]", "result": "14.6 µM (active)"}, {"measurement": "IC50", "setting": "Fatty acid synthase [2]", "result": "15.9 µM (active)"}]}
